Source: patent publication US12453769B2 (priority 2019, dated 2025)

System: gE-specific IFN-γ
Set-up: species or system C57BL/6(N) mice
Conditions: mouse, in vivo

With QS-21 as the substance, how does the “induced production level of gE-specific IFN-γ (ELISPOT spot)” value read?
Its value is “the best effect”.
